Consider 17 compounds from patent US5075440A, “Novel pyrido[2,3-f](1,4)thiazepines and pyrido[3,2-b](1,5)benzothiazepines” (Ortho Pharmaceutical Corporation, priority 1990, dated 1991).

“And” between values parts separate entries of the source, which are not always exact repeats. Identical values can stand only once.

Assay [1] deals with T1, Calcium Channel (3H-nitrendipine binding, heart membranes) (Oryctolagus cuniculus, UniProt P15381).
T1 construct: the heart is immediately removed, cleaned and chopped into small pieces; The tissue is homogenized; from tissue; host or cells: heart membranes of female New Zealand white rabbits (42,000×g pellet)
T1 sequence (P15381 whole entry, other chains not shown): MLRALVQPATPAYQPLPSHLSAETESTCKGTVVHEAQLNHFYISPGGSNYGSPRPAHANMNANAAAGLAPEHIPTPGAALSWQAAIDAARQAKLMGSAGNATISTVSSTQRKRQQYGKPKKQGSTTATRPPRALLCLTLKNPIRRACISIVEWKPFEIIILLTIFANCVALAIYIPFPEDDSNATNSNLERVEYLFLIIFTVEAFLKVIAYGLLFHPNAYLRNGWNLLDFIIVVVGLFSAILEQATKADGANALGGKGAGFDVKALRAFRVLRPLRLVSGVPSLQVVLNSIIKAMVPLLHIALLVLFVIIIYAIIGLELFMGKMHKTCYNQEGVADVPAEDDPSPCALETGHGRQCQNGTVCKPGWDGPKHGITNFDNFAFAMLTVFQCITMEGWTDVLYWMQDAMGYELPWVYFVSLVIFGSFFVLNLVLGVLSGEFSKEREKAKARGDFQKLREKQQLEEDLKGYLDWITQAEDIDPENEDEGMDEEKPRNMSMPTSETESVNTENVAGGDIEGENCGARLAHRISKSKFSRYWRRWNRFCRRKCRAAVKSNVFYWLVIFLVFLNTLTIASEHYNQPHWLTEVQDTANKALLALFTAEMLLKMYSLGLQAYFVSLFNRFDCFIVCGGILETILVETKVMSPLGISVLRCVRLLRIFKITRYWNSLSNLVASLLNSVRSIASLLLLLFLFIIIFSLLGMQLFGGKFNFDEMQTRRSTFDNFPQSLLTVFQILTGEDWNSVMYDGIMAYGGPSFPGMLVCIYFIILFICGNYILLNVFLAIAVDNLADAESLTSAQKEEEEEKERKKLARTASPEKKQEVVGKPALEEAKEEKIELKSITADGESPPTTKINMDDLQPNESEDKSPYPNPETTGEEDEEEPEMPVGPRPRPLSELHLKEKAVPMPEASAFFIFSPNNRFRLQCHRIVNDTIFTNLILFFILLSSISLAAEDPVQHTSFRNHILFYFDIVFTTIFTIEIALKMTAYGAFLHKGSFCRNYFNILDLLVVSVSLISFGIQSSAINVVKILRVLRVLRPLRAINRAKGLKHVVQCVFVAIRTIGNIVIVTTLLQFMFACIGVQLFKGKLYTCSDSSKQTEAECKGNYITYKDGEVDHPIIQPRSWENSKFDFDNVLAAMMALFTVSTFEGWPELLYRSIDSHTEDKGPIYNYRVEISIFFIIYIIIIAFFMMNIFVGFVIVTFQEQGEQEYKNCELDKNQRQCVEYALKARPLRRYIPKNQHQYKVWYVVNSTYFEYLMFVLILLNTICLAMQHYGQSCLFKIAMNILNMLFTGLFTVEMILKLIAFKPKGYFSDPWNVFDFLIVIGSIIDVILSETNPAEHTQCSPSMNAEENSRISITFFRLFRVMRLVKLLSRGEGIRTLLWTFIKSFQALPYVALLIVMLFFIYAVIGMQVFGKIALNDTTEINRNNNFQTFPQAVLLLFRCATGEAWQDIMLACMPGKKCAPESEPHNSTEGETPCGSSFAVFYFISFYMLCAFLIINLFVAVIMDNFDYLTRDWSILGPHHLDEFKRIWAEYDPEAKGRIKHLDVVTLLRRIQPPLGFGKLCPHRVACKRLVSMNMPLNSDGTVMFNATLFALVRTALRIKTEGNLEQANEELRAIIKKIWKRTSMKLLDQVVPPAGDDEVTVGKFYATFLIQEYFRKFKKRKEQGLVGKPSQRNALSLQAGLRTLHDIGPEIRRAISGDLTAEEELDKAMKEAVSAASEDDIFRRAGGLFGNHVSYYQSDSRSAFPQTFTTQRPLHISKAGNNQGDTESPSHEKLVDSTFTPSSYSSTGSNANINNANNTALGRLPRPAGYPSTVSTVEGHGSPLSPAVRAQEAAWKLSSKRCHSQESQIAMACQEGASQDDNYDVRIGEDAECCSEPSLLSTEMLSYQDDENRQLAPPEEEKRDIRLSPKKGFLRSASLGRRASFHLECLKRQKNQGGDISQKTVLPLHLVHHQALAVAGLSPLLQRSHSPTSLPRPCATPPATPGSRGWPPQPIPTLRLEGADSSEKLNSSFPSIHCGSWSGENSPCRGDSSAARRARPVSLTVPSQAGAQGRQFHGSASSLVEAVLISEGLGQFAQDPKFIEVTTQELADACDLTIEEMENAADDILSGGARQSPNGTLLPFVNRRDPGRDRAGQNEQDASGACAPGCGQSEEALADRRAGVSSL
T1 sequence (P13806 27-960 partner limits assumed, other chains not shown): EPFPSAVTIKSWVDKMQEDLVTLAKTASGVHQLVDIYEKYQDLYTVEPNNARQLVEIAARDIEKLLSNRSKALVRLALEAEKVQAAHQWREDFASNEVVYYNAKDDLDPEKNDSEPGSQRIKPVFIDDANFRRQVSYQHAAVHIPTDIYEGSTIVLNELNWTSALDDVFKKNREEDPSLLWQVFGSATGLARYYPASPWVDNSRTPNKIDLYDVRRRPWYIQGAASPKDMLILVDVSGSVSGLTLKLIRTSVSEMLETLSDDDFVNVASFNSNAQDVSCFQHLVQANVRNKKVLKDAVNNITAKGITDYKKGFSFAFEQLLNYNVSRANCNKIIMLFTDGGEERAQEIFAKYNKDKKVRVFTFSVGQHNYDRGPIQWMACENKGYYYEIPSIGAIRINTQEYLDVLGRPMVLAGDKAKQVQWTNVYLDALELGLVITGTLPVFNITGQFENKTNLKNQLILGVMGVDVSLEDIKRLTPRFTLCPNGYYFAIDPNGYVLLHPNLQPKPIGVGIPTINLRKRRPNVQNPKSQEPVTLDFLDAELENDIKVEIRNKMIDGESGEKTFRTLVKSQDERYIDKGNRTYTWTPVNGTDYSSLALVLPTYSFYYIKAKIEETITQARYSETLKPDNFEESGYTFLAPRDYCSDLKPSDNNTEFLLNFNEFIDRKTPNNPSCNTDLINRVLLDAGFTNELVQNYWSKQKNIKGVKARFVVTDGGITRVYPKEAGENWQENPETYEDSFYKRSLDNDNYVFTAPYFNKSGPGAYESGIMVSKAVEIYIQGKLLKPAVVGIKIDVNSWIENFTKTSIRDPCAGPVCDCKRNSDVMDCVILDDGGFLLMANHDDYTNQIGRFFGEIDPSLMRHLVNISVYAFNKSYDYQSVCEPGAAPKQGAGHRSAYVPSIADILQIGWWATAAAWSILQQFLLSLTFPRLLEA
T1 sequence (P13806 961-1106 partner limits assumed, other chains not shown): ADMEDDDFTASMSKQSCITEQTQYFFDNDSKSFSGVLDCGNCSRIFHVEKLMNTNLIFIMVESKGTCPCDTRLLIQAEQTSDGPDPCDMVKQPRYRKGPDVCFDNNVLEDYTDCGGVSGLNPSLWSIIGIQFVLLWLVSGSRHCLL
In words: Inhibition of 3H-nitrendipine binding (P#166 Nit. Binding). On the set-up: species or system rabbit. The settings on record: for IC50: rabbit heart membranes, 3H-nitrendipine 0.05-0.50 nM. The procedure: The assay for inhibition of nitrendipine binding is performed using the following procedure:
Female, New Zealand white rabbits (1-2 kg) are sacrificed by cervical dislocation, and the heart is immediately removed, cleaned and chopped into small pieces. The tissue is homogenized in 5×volume of 0.05M Hepes buffer, pH 7.4. The homogenate is centrifuged at 4000×g for 10 minutes, and the supernatant is recentrifuged at 42,000×g for 90 minutes. The resulting membrane pellet is resuspended (0.7 ml/g weight) in 0.05M Hepes, pH 7.4 and stored at […] until used. Each tube of the binding assay contains ^3 H-nitrendipine (0.05-0.50 nM), buffer, membranes (0.10 ml), and test compound in a total volume of 1.0 ml. After 90 minutes at 4° C., the bound nitrendipine is separated from the unbound by filtration on Whatman GF/C filters. After rinsing, the filters are dried and counted in a liquid scintillation counter.
Non-specific binding of ^3 H-nitrendipine (that amount bound in the presence of excess unlabelled nitrendipine) is subtracted from the total bound to obtain specifically bound radiolabeled nitrendipine. The amount of specifically bound nitrendipine in the presence of a test compound is compared to that amount bound in the absence of a compound. A percent displacement (or inhibition) can then be obtained.

In another assay the test system is aorta tissue. Nature of the assay: Inhibition of calcium dependent smooth muscle contraction, aorta (P#176 Aorta). Details: species or system dog. The settings on record: 50 mM KCl contraction. The procedure: (§1) The test for inhibition of calcium dependent smooth muscle contraction is determined according to the following procedure:
(§2) The trachea and the aorta from dogs sacrificed by excess KCl injection are stored overnight at 4° C. in oxygenated Krebs-Henseleit buffer. Tracheal rings, one cartilage segment wide (5-10 mm), are cut starting from the bronchial end. Rings of aorta tissue of the same width are also prepared. After cutting the cartilage, the trachealis muscle tissue and the aorta tissue are suspended in oxygenated Krebs-Henseleit buffer at 37° C. in a 25 ml tissue bath. After a 60-minute equilibration period, the tissues are challenged with 10 μM carbachol. After 5 minutes, the tissues are rinsed and allowed to rest 50 minutes. The tissues are then challenged with 50 mM KCl and, after 30 minutes, the contractions are quantitated. The tissues are then rinsed and reequilibrated for 50 minutes. Test compounds are then added for 10 minutes, and the tissue is rechallenged with 50 mM KCl. After 30 minutes, the contraction is recorded and used to determine the % inhibition of control.
(§3) The percent inhibition of smooth muscle contraction is calculated from response data before and after drug treatment. [formula]

Another assay has as its system trachealis muscle tissue. Nature of the assay: Inhibition of calcium dependent smooth muscle contraction, trachea (P#176 Trach). On the set-up: species or system dog. The settings on record: 50 mM KCl contraction; for inhibition at 0.01 µM / inhibition at 0.1 µM / inhibition at 1 µM / inhibition at 0.03 µM / inhibition at 0.3 µM / inhibition at 2 µM: Canis lupus familiaris, read-out: P#176 Trach % INHB/μM. How it is done:
as §1, §2, §3

Setting [2] is: Canis lupus familiaris, 0.01 μM, read-out: P#176 Aorta % INHB/μM.
Setting [3] is: Canis lupus familiaris, 1.0 μM, read-out: P#176 Aorta % INHB/μM.
Where [4] appears, read: Canis lupus familiaris, 0.1 μM, read-out: P#176 Aorta % INHB/μM.
The mark [5] stands for this setting: Canis lupus familiaris, read-out: P#176 Aorta % INHB/μM.

Take `CCOC(=O)C1=C(C)NC2=C(C1c1c(F)c(F)c(F)c(F)c1F)S(=O)(=O)CCN(C)C2` (stereo not shown) [pentafluoro / Me / ethyl, Ethyl 4,7-dimethyl-1,1-dioxo-2,3,4,5,6,9-hexahydro-9-(2,3,4,5,6-pentafluorophenyl)-pyrido[2,3-f][1,4]-thiazepine-8-carboxylate]: in assay [1], the IC50 was 53 nM. Further, the values for the inhibition at 0.01 µM in the assay on aorta tissue (setting [2]) and with trachealis muscle tissue were 50% and 35%, respectively. Further, the inhibition at 1 µM is 97% in the assay with aorta tissue (setting [3]) and 95% in the assay with trachealis muscle tissue. In addition, the inhibition at 0.1 µM in the assay on trachealis muscle tissue (0.1 μM) turned out to be 73%.

`CCOC(=O)C1=C(C)NC2=C(C1c1cccc(Cl)c1Cl)S(=O)(=O)CCNC2` (single isomer, unassigned) [2,3-dichloro / H / ethyl, Ethyl 9-(2,3-dichlorophenyl)-1,1-dioxo-2,3,4,5,6,9-hexahydro-7-methylpyrido[2,3-f][1,4]-thiazepine-8-carboxylate]: in the assay with trachealis muscle tissue, the inhibition at 0.03 µM stood at 25% and the inhibition at 0.3 µM worked out at 24%.

In the case of `CCOC(=O)C1=C(C)NC2=C(C1c1cccc([N+](=O)[O-])c1)S(=O)(=O)CCN(CC)C2` (stereo not shown) [3-nitro / Et / ethyl, Ethyl 1,1-dioxo-4-ethyl-2,3,4,5,6,9-hexahydro-7-methyl-9-(3-nitrophenyl)-pyrido[2,3-f][1,4]-thiazepine-8-carboxylate], in the assay on aorta tissue (setting [2]), the inhibition at 0.01 µM was 5%. Moreover, the inhibition at 0.1 µM with aorta tissue (setting [4]) was found to be 73%. In the assay with trachealis muscle tissue, the inhibition at 0.03 µM came out at 50% and the inhibition at 0.3 µM came to 92%. Moreover, the inhibition at 0.1 µM with trachealis muscle tissue (0.1 μM) amounted to 73%.

On to `CC(=O)OCCOC(=O)C1=C(C)NC2=C(C1c1cccc(Cl)c1Cl)S(=O)(=O)CCN(C)C2` (stereo not shown) [2,3-dichloro / Me / 2-acetoxyethyl, 2-Acetoxyethyl 9-(2,3-dichlorophenyl)-4,7-dimethyl-1,1-dioxo-2,3,4,5,6,9-hexahydropyrido[2,3-f][1,4]-thiazepine-8-carboxylate], for which the inhibition at 0.01 µM with aorta tissue (setting [2]) was 0%. Moreover, the inhibition at 0.1 µM with aorta tissue (setting [4]) stood at 26%. Moreover, in the assay with aorta tissue (setting [3]), the inhibition at 1 µM was 89%.

As to `CCOC(=O)C1=C(C)NC2=C(C1c1ccccc1[N+](=O)[O-])S(=O)(=O)CCNC2` (stereo not shown) [2-nitro / H / ethyl], in the assay on aorta tissue (setting [2]), the inhibition at 0.01 µM was 27%. For the same compound, the inhibition at 0.1 µM in the assay on aorta tissue (setting [4]) is 47%; in the assay with trachealis muscle tissue (0.1 μM), 12%. The inhibition at 1 µM in the assay on aorta tissue (setting [3]) stood at 77%. Further, in the assay with trachealis muscle tissue, the inhibition at 0.3 µM worked out at 45%. The inhibition at 2 µM with trachealis muscle tissue (2.0 μM) was 75%.

As for `CCOC(=O)C1=C(C)NC2=C(C1c1cccc(Cl)c1Cl)S(=O)(=O)c1ccccc1N(C=O)C2` (stereo not shown) [2,3-dichloro / CHO / ethyl, Ethyl 4-(2,3-dichlorophenyl)-5,5-dioxo-10-formyl-2-methyl-1,4,10,11-tetrahydropyrido[3,2-b][1,5]-benzothiazepine-3-carboxylate], the inhibition at 0.01 µM in the assay on aorta tissue (setting [2]) came out at 33%. Further, in the assay on aorta tissue (setting [4]), the inhibition at 0.1 µM came to 50%. The inhibition at 1 µM with aorta tissue (setting [3]) came out at 74%. In addition, in the assay on trachealis muscle tissue, the inhibition at 0.01 µM was found to be 38% and the inhibition at 0.3 µM worked out at 35%. Further, the inhibition at 2 µM in the assay on trachealis muscle tissue (2.0 μM) stood at 73%.

In the case of `CCOC(=O)C1=C(C)NC2=C(C1c1cccc(Cl)c1Cl)S(=O)(=O)CCN(CC)C2` (stereo not shown) [2,3-dichloro / Et / ethyl, Ethyl 9-(2,3-dichlorophenyl)-1,1-dioxo-4-ethyl-2,3,4,5,6,9-hexahydro-7-methyl-pyrido[2,3-f][1,4]-thiazepine-8-carboxylate], the half-inhibitory concentration (IC50) in assay [1] came to 60 nM. Further, the inhibition at 0.01 µM amounted to 19% with aorta tissue (setting [2]) and 33% in the assay on trachealis muscle tissue. The inhibition at 0.1 µM in the assay on aorta tissue (setting [4]) was determined as 76%. For the same compound, the inhibition at 1 µM with aorta tissue (setting [3]) is 96%; in the assay on trachealis muscle tissue it was 90%. In the assay on trachealis muscle tissue, the inhibition at 0.3 µM is 70%.

`CCOC(=O)C1=C(C)NC2=C(C1c1cccc3nonc13)S(=O)(=O)CCNC2` (stereo not shown) [2,3-(2,1,3 oxadiazolyl) / H / ethyl]: the IC50 in assay [1] came to 660 nM. Also, in the assay on aorta tissue (setting [4]), the inhibition at 0.1 µM was 22%. In addition, the inhibition at 1 µM with aorta tissue (setting [3]) stood at 83%. Further, the inhibition at 0.3 µM in the assay with trachealis muscle tissue is 22%. For the same compound, in the assay on trachealis muscle tissue (2.0 μM), the inhibition at 2 µM amounted to 68%.

For `CCOC(=O)C1=C(C)NC2=C(C1c1ccccc1C(F)(F)F)S(=O)(=O)CCNC2` (stereo not shown) [2-CF3 / H / ethyl], the half-inhibitory concentration (IC50) in assay [1] came to 360 nM. Also, the inhibition at 0.01 µM in the assay on aorta tissue (setting [2]) is 37%. In addition, the inhibition at 0.1 µM in the assay with aorta tissue (setting [4]) was 68%; in the assay on trachealis muscle tissue (0.1 μM), 38%. For the same compound, the inhibition at 1 µM in the assay on aorta tissue (setting [3]) was 83%. For the same compound, in the assay with trachealis muscle tissue, the inhibition at 0.3 µM worked out at 35%. Also, the inhibition at 2 µM in the assay on trachealis muscle tissue (2.0 μM) came to 73%.

`CC(=O)OCCOC(=O)C1=C(C)NC2=C(C1c1cccc(Cl)c1Cl)S(=O)(=O)CCNC2` (stereo not shown) [2,3-dichloro / H / 2-acetoxyethyl, 2-Acetoxyethyl 9-(2,3-Dichlorophenyl) -1,1-dioxo-2,3,4,5,6,9-hexahydro-7-methylpyrido [2,3-f][1,4]thiazepine-8-carboxylate]: the inhibition at 0.1 µM in the assay on aorta tissue (setting [4]) turned out to be 18%. Besides, the inhibition at 0.3 µM in the assay on aorta tissue (Canis lupus familiaris, 0.3 μM, read-out: P#176 Aorta % INHB/μM) was 62%. Also, the inhibition at 1 µM with aorta tissue (setting [3]) stood at 72%.

`CCOC(=O)C1=C(C)NC2=C(C1c1ccccc1C(F)(F)F)S(=O)(=O)CCN(C(=O)OC(C)(C)C)C2` (stereo not shown) [2-CF3 / BOC / ethyl]: the figures for the inhibition at 1 µM (in assay [1] (@ 1.0 μM test compound); in the assay on aorta tissue (setting [3])) were 7% and 47%, respectively. The inhibition at 0.1 µM in the assay with aorta tissue (setting [4]) was 37%. For the same compound, the inhibition at 0.3 µM in the assay on trachealis muscle tissue came out at 24%. Besides, the inhibition at 2 µM in the assay on trachealis muscle tissue (2.0 μM) turned out to be 50%.

As for `CC1=C(C(=O)OCCN(C)Cc2ccccc2)C(c2cccc(Cl)c2Cl)C2=C(CN(C)CCS2(=O)=O)N1` (stereo not shown) [2,3-dichloro / Me / NBzNMe-ethyl], in assay [1], the 50% inhibitory concentration (IC50) is 150 nM. Moreover, in the assay on trachealis muscle tissue, the inhibition at 0.03 µM was found to be 28% and the inhibition at 0.3 µM was 71%. In addition, the inhibition at 0.1 µM in the assay on trachealis muscle tissue (0.1 μM) came to 54%. Moreover, the inhibition at 2 µM in the assay with trachealis muscle tissue (2.0 μM) is 88%.

For `CC1=C(C(=O)OCCO)C(c2cccc(Cl)c2Cl)C2=C(CN(C)CCS2(=O)=O)N1` (stereo not shown) [2,3-dichloro / Me / 2-hydroxyethyl], the inhibition at 0.1 µM with aorta tissue (setting [4]) was determined as 14%. The inhibition at 1 µM with aorta tissue (setting [3]) worked out at 62%. Further, in the assay on aorta tissue (Canis lupus familiaris, 3.0 μM, read-out: P#176 Aorta % INHB/μM), the inhibition at 3 µM was 77%. In the assay with aorta tissue (setting [5]), the inhibition at 10 µM was 95%.

Consider `CCOC(=O)C1=C(C)NC2=C(C1c1cccc(Cl)c1Cl)S(=O)(=O)CCN(C(=O)CN)C2` (stereo not shown) [2,3-dichloro / NH2 CH2 CO / ethyl], for which, in the assay with aorta tissue (setting [3]), the inhibition at 1 µM worked out at 20%. The inhibition at 0.3 µM in the assay with trachealis muscle tissue was determined as 6%. Further, the inhibition at 2 µM with trachealis muscle tissue (2.0 μM) amounted to 36%.

As for `CCCCCCCN1CCS(=O)(=O)C2=C(C1)NC(C)=C(C(=O)OCC)C2c1cccc(Cl)c1Cl` (stereo not shown) [2,3-dichloro / hept / ethyl], in the assay on aorta tissue (setting [4]), the inhibition at 0.1 µM was 4%. Also, the inhibition at 2 µM in the assay with trachealis muscle tissue (2.0 μM) stood at 27%.

For the compound `CC1=C(C(=O)OCCO)C(c2cccc(Cl)c2Cl)C2=C(CNCCS2(=O)=O)N1` (stereo not shown) [2,3-dichloro / H / 2-hydroxyethyl], the inhibition at 1 µM in the assay with aorta tissue (setting [3]) is 0%. For the same compound, the inhibition at 10 µM in the assay with aorta tissue (setting [5]) worked out at 56%.

For `CCOC(=O)C1=C(C)NC2=C(C1c1cccc(Cl)c1Cl)S(=O)(=O)CCNC2` (single isomer, unassigned) [2,3-dichloro / H / ethyl] [Ethyl 9-(2,3-dichlorophenyl)-1,1-dioxo-2,3,4,5,6,9-hexahydro-7-methylpyrido[2,3-f][1,4]-thiazepine-8-carboxylate], the “P#176 Aorta % INHB/μM” value with aorta tissue (0.01 μM) was 0% and 14%; in the assay with aorta tissue (0.1 μM), 0% and 67%; in the assay with aorta tissue (1.0 μM) it was 69% and 97%. Moreover, the “P#176 Trach % INHB/μM” value was 2% and 47% in the assay with trachealis muscle tissue (0.1 μM); 54% and 96% in the assay on trachealis muscle tissue (2.0 μM).

The IC50 is the point on the concentration scale where inhibition reaches its midpoint.
